{"source": "the NIST ThermoML archive (doi:10.1016/j.jct.2005.06.013)", "settings": "298.15 K; 101.33 kPa; Crystal; mass and volume measurments", "note": "± gives the expanded uncertainty stated by the source."}
{"smiles": "Oc1cccnc1O", "note": "[2,3-dihydroxypyridine]", "values": [{"measurement": "mass density", "value": "1130 ± 20", "unit": "kg/m3"}]}
